# According to patent publication US20100285959A1, “HERBICIDAL MIXTURES” (priority 2006, published 2010):
# Columns and labels:
# Parameters in all cases: scale not given here
# flint corn (ZEAMI) = assay: Test 11 field trial, preemergence; format: in vivo, Zea mays L. ssp. indurata; conditions: atrazine 1500 or metolachlor 2500 g a.i./ha alone
# Excerpt: Corn seeds (hybrid ‘Pioneer 3041’) were planted in mid spring season, 5 cm deep in a clay soil having 2.6% organic matter and a pH of 5.6. Plots were 8 m long by 1.5 m wide with rows spaced 80 cm apart. Seeds were spaced 15 cm apart within the rows. The field was managed using conventional tillage practices. […] Treatments consisted of Compound 2 or
# Goosegrass was not evaluated 16 or 91 days after application.
# ducksalad (HETLI) = assay: Test 32 greenhouse, simulated flooded rice culture; format: in vivo, Heteranthera limosa; conditions: postemergence to flood, 21 DAA
# Procedure: A greenhouse trial was conducted to evaluate the effects of Compound 1 and isoxadifen-ethyl at different ratios in simulated flooded rice culture. Plastic pots (11-cm diameter) were partially filled with non-sterilized Tama silt loam soil containing a 15:57:28 ratio of sand, silt and clay and 2.9% organic matter. Seeds of Heteranthera limosa (ducksalad; HETLI), Cyperus difformis (smallflower umbrella sedge; CYPDI), one stand of Echinochloa crus-galli (barnyardgrass; ECHCG), and one stand of four rice seedlings (Oryza sativa cv. ‘M202’; ORYSA) were planted into a single 11-cm diameter pot for each rate and mixture of rates. To obtain this planting, C. difformis and H. limosa seeds were planted separately on the surface soil layer at particular locations within each pot. Water levels were brought to a puddled condition above the soil surface directly after planting. E. crus-galli and rice seeds were planted in cavity trays in the silt loam soil and transplanted at the 1.5 and 2.0 leaf stage, respectively. E. crus-galli and rice plants were transplanted to about 2-cm depth by transferring plugs from the cavity trays. Plantings were sequential so that these plant species all reached the 2.0- to 2.5-leaf stage in the 11-cm diameter pot at time of treatment. Plantings were established and maintained in a greenhouse with day and night temperatures of about 29.5 and 26.7° C. respectively; supplemental balanced lighting was provided to maintain a 16-hour photoperiod. Pots were fertilized periodically with a 200 ppm solution of commercial Scotts Peters® Professional® General Purpose 20-20-20 Water Soluble Fertilizer, amended to 10 ppm with a commercial iron-chelate micronutrient fertilizer. The solution was supplied at time of watering via a liquid fertilizer injector.
# At treatment time, test pots were flooded to 3 cm above the soil surface and maintained at that water depth for the duration of the test. Chemical treatments were formulated in acetone and applied directly to the paddy water (i.e., postemergence to flood). Make-up volumes of acetone were added to ensure that all pots were treated with a consistent volume. Test pots were maintained in the greenhouse. A randomized complete block design was employed. Five replicates of each treatment, alone and in mixture, were used. Each species was visually evaluated for treatment effects by comparing those treated to untreated controls and rated for plant response after 21 days.
# wild oat (AVEFA) = assay: Test 4 field trial, postemergence; format: in vivo, Avena fatua
# Procedure: A field trial was conducted to evaluate the effects of mixtures of Compound 2 with commercial herbicides on spring wheat (TRZAS, Triticum aestivum L.) and several weed species. Wheat seeds (cv. ‘AC Intrepid’) were planted in late spring season, 3.8 cm deep in a loam soil having 2.7% organic matter and a pH of 7. Plots were 6 m long by 2.5 m wide. The field was managed using no-till practices. The plots were arranged in a randomized complete block design with each treatment being replicated four times. Treatments were applied postemergence 25 days after planting using a backpack sprayer delivering a spray volume of 55 L/ha using a pressure of 276 kPa. […] Compound 2 and clodinafop treatments, alone and in combination, also included a surfactant. Weed species present in the experimental plots in sufficient quantity to be evaluated included wild oat (AVEFA, Avena fatua L.), common lambsquarters (CHEAL, Chenopodium album L.), kochia (KCHSC, Kochia scoparia (L.) Schrad.), wild buckwheat (POLCO, Polygonum convolvulus L.), Russian thistle (SASKR, Salsola kali L. ssp. ruthenica (Iljin) Soo), and field pennycress (THLAR, Thlaspi arvense L.). […] Common lambsquarters was evaluated only at 14 days after application. […] Results are the means of the four replicates.
structure (smiles),measurement,setting,value
"CCNc1nc(Cl)nc(NC(C)C)n1 [Atrazine, atrazine, reference compound]",ZEAMI Obs,flint corn (ZEAMI); 16 DAA,0
same,ZEAMI Obs,flint corn (ZEAMI); 30 DAA,0
same,ZEAMI Obs,flint corn (ZEAMI); 44 DAA,0
same,ZEAMI Obs,flint corn (ZEAMI); 62 DAA,0
same,ZEAMI Obs,flint corn (ZEAMI); 91 DAA,0
"Nc1nc(C2CC2)nc(C(=O)O)c1Cl [Compound 1, 6-amino-5-chloro-2-cyclopropyl-4-pyrimidinecarboxylic acid]",HETLI Obs,ducksalad (HETLI); Cpd 1 31.25 g a.i./ha,38
same,HETLI Obs,ducksalad (HETLI); Cpd 1 62.5 g a.i./ha,76
same,HETLI Obs,ducksalad (HETLI); Cpd 1 125 g a.i./ha,95
"COC(=O)c1nc(C2CC2)nc(N)c1Cl [Compound 2, methyl 6-amino-5-chloro-2-cyclopropyl-4-pyrimidinecarboxylate]",AVEFA Obs,"wild oat (AVEFA); 14 DAA, Cpd 2 30 g a.i./ha alone or with clodinafop 56 or fenoxaprop 90",0
same,AVEFA Obs,"wild oat (AVEFA); 14 DAA, Cpd 2 60 g a.i./ha alone or with clodinafop 56 or fenoxaprop 90",0
same,AVEFA Obs,"wild oat (AVEFA); 35 DAA, Cpd 2 30 g a.i./ha alone or with clodinafop 56 or fenoxaprop 90",0
same,AVEFA Obs,"wild oat (AVEFA); 35 DAA, Cpd 2 60 g a.i./ha alone or with clodinafop 56 or fenoxaprop 90",0
same,AVEFA Obs,"wild oat (AVEFA); 55 DAA, Cpd 2 30 g a.i./ha alone or with clodinafop 56 or fenoxaprop 90",0
same,AVEFA Obs,"wild oat (AVEFA); 55 DAA, Cpd 2 60 g a.i./ha alone or with clodinafop 56 or fenoxaprop 90",0
